The values that follow come from patent US20100209934A1, “METHOD OF IDENTIFYING AGENTS WHICH MODULATE THE ACTIVITY OF CALCIUM-ACTIVATED CHLORIDE CHANNEL” (SNU R&DB FOUNDATION, priority 2007, published 2010).

For test [1], the target named is T1, mANO1 (Mus musculus, UniProt Q8BHY3, S527P).
T1 sequence (Q8BHY3 1-960 S527P): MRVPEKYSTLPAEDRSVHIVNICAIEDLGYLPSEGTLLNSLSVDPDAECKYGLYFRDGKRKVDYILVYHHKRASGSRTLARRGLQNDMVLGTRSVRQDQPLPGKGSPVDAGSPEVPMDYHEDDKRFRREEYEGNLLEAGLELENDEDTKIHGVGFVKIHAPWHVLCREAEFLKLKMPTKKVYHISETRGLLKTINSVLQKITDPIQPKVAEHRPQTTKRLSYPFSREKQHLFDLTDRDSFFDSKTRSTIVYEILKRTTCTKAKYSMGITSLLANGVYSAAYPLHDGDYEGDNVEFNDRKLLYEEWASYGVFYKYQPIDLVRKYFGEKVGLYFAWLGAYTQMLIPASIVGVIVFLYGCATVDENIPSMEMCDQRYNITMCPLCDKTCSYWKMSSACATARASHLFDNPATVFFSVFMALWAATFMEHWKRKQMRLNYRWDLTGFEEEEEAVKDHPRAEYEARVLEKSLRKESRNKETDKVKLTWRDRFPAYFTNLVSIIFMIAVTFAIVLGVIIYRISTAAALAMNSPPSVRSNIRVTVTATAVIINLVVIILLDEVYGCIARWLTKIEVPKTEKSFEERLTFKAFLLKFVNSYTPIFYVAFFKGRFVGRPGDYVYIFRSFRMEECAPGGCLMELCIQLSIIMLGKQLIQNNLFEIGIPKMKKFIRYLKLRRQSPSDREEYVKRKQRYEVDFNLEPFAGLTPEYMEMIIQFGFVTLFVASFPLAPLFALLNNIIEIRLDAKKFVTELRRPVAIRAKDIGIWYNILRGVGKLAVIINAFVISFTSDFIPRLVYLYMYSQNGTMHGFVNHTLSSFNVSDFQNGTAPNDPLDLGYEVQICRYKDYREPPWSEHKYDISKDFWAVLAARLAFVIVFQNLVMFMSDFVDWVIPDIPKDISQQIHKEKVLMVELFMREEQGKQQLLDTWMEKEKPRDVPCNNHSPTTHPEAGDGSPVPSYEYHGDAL
The experiment in a line: Two-electrode voltage clamp currents in Xenopus oocytes injected with mANO1 complementary RNA. The class given is cell-based. More on the design: expressed in transfected cells; host or cells: Xenopus laevis oocytes (cRNA injection). The settings on record: for block of LPA-induced ANO1 currents: DIDS 300 μM, niflumic acid 200 μM, NPPB 200 μM applied 10˜20 min before LPA; for block of LPA current responses by pretreatment: mANO1 oocytes, 1 μM thapsigargin for 3 hours or 10 μM U-73122 for 20 min before 1 μM LPA. The protocol:
pSDTF-mANO1 obtained in Reference Example 1 was linearized using BamHI. Complementary RNA was transcribed with SP6 RNA polymerase (mMESSAGE mMACHINE® SP6 Kit, Ambion, Austin, Tex.). After being defolliculated with collagenase (Type IA, Sigma), Xenopus laevis oocytes were injected with 50 ng of the complementary RNAs of mANO1 in 50 nl of diethylpyrocarbonate-treated water. Two to five days after the injection, whole cell currents were recorded using the two-electrode voltage clamp technique. The bath solution contained 96 mM NaCl, 1 mM MgCl2, 5 mM HEPES, 2 mM KCl and 1.8 mM CaCl2 at pH 7.5 and was perfused at 2 ml/min. Experiments were performed at room temperature.
Xenopus oocytes provide a recognized model for endogenous CaCC studies because they express endogenous CaCCs that are required for ‘fertilization depolarization’ (Hartzell, H. C. et al., Mol Pharmacol 51, 683-92 (1997)). Furthermore, the biophysical and pharmacological properties of Xenopus CaCCs are similar to those of mammalian CaCCs (Machaca, K. et al., Calcium-Activated Chloride Channels (ed. Fuller, C. M.) (Academic Press, Amsterdam, 2002)). Accordingly, the present inventors expressed mANO1 in Xenopus oocytes and tested its activation by receptor stimulation using 1 μM LPA (lysophosphatidic acid). CaCCs in Xenopus are known to be activated by LPA (Guo, Z. et al., Proc Natl Acad Sci USA. 93, 14367-72 (1996); and Kim, M. J. et al., Biochem Pharmacol. 59, 241-7 (2000)). […] Moreover, LPA-induced ANO1 currents were outwardly-rectifying, like those of native CaCCs in Xenopus oocytes (Machaca, K. et al., supra) (FIG. 4C). The reversal potential was 37.7±1.05 mV (n=5), which is close to the equilibrium potential of Cl^− in Xenopus oocytes (Weber, W., Biochim Biophys Acta 1421, 213-33 (1999)).
Indeed, LPA (1 μM) applied to oocytes expressing mANO1 induced a large inward current.
Further, pretreatment of 1 μM thapsigargin blocked the IP3-induced current in a mANO1-expressing oocyte (FIGS. 10C and 10D).
(§1) LPA-induced ANO1 currents were blocked by Cl^− channel blockers. The Cl^− channel blockers were applied 10˜20 min before the LPA application. […] This blockade of agonist-induced ANO1 currents by DIDS, niflumic acid, or NPPB were also observed in mammalian cells transfected with mANO1.

In test [2] the target is T1, mANO1. The experiment in a line: Inhibition of endothelin-1 evoked currents in mANO1-ETAR/HEK cells by Cl− channel and CaCC blockers. The class given is cell-based. More on the design: expressed in transfected cells. The settings on record: ANO1/ETAR-HEK cells; blockers 10 μM (mefloquine 5 μM) applied 5 min before second 50 nM endothelin-1. The procedure: B. Inhibition of endothelin-1 evoked currents in mANO1-ETAR/HEK cells by Cl^− channel blockers as well as classical inhibitors (each, n=5) of native CaCCs. Chemicals in 10 μM (except mefloquine, 5 μM) were applied 5 min before the second application of endothelin-1. Control (n=12). **p<0.001 compared to control (ANOVA, Duncan's post hoc test). (Error bars=Mean±S.E.M)
(§2) To form gigaseals, individual cell surfaces were touched with a ˜3 Mohm Sylgard-coated glass pipette with gentle suction, and the junction potential was then adjusted to 0 mV. The membrane in contact with the pipette was then ruptured by suction to form a whole cell. The pipette solution contained 140 mM NMDG-Cl, 2 mM MgCl2, 10 mM HEPES, 2 mM ATP, and 0.3 mM GTP adjusted to pH 7.2, and the bath solution contained 140 mM NMDG-Cl, 2 mM MgCl2 and 10 mM HEPES (pH 7.2). For ion selectivity experiments, 140 mM NMDG-Cl was replaced with equimolar NaCl, NaL NaBr, NaNO3, NaF, or Na-gluconate in the bath solution. To determine current-voltage relationships, voltage ramps from −80 or −100 mV to +80 or +100 mV were delivered for 350 ms, or voltage-pulses from −100 mV to +100 mV were delivered for 400 ms to whole cells. When mANO1 was activated by 300 nM intracellular Ca^2+, voltage-pulses of 2500 ms were delivered. Whole-cell currents were amplified using an Axopatch 200B amplifier (Molecular Device, Sunnyvale, Calif.) and stored in a personal computer after digitization by a Digidata 1440 (Molecular Device). For single-channel current recordings, cell-attached or inside-out patches were formed from gigaseals. The pipette and control bath solution contained 140 mM NMDG-Cl, 2 mM MgCl2 and 10 mM HEPES (pH 7.2). […] To create amplitude histograms, pClamp software (version 6.0, Molecular Device) was used to analyze open and closed single-channel current events. The half-amplitude algorithm was used to determine an open event. The minimum duration of an open event was set at 0.1 ms.
as §1
In addition, modifiers of various enzymes or transporters such as fluoxetine (serotonin reuptake inhibitor), tamoxifen (estrogen receptor modulator), n-phenyl-anthranilic acid (NPA, cyclooxygenase inhibitor), and mefloquine (antimalarial drug) are known to block native CaCCs (Eggermont, J., Proc Am Thorac Soc. 1, 22-7 (2004); Nilius, B. et al. J Physiol. 498, 381-96 (1997); Nilius, B. & Droogmans, G., Acta Physiol Scand 177, 119-47 (2003)). If ANO1 is a CaCC, mANO1 should be inhibited by these CaCC blockers.

For test [3], the system named is mANO1. The test can be described thus: Whole-cell current response to GPCR stimulation in HEK 293T cells co-transfected with mANO1 and a GPCR. The class given is cell-based, mouse. The settings on record: mANO1 co-expressed in HEK cells with M1R, H1R or AT1R; carbachol 1 μM, histamine 100 μM, angiotensin II 1 μM. The procedure:
HEK 293T cells were transfected with pEGFP-N1 (control) (1.0 μg) or pEGFP-N-1-mANO1 (0.8˜1.0 μg) and/or any one of the GPCR cDNAs (1.0 μg) obtained in Reference Example 2, using a FuGENE® HD transfection reagent (Roche Diagnostics, Penzberg, Germany). Transfected cells were maintained in DMEM supplemented with heat inactivated 10% fetal bovine serum (GIBCO BRL, Rockville, Md.) and penicillin-streptomycin at 37 in a 5% CO2 humidified atmosphere. One or two days after transfection, transfected cells were used for biochemical and electrophysiological experiments.
as §2
Under physiological conditions CaCCs are known to be activated by GPCR stimulation. Endothelin-1 is a powerful vasoconstrictor that depolarizes vascular smooth muscle by activating CaCCs (Klockner, U. & Isenberg, G., Pflugers Arch. 418, 168-75 (1991); and Salter, K. J. & Kozlowski, R. Z., J Pharmacol Exp Ther. 279, 1053-62 (1996)). Thus, mANO1 and endothelin receptor subtype A (ETAR) were transfected into HEK 293T cells, along with GFP for visual identification of transfected cells, in accordance with the method of Reference Example 5. Whole cells were used to test the current response of mANO1 to ETAR stimulation. Pipette and bath solutions contained 140 mM N-methyl D-glucamine (NMDG)-Cl, which permitted Cl^− to be used as the main charge carrier. The pipette solution was Ca^2+ free and contained no EGTA. […] In contrast, endothelin-1 evoked currents were minimal in HEK cells transfected with ETAR or control (GFP-transfected only) cells. When mANO1 was transfected alone, 50 nM endothelin-1 evoked appreciable currents; presumably because of the presence of endogenous endothelin receptors in HEK cells.

Regarding lysophosphatidic acid [LPA], on mANO1 [1] (1 μM LPA, Xenopus oocytes, −60 mV), the “current response to LPA in mANO1 RNA-injected vs water-injected oocytes” value is on record as “increased about six fold”.

As for `CC/C(=C(\c1ccccc1)c1ccc(OCCN(C)C)cc1)c1ccccc1` [tamoxifen], on mANO1 [2], the “inhibition of response to second application of endothelin-1 (endothelin-1 induced currents)” value (“inhibition of response” below) was “markedly inhibited”.

For the compound `O=S(=O)(O)c1cc(N=C=S)ccc1C=Cc1ccc(N=C=S)cc1S(=O)(=O)O` [DIDS, 4,4′-diisothiocyanato-stilbene-2,2′-disulfonic acid], on mANO1 [1] (Xenopus oocytes), the “block of LPA-induced ANO1 currents” value is on record as “significantly blocked”. Also, the “inhibition of response” value at mANO1 [2] is on record as “markedly inhibited”.

For `NCCc1c[nH]cn1` [histamine], the “current responses to GPCR ligands” value in the test on mANO1 [3] is listed as “robust current responses”.

“angiotensin II (DRVYIHPF) [ligand of angiotensin receptor subtype 1 (AT1R)]”: the “current responses to GPCR ligands” value in the test on mANO1 [3] is on record as “robust current responses”.

Consider `C/C=C(/C)C(=O)O[C@H]1C(C)=C2[C@H]([C@@H]1OC(=O)CCCCCCC)[C@@](C)(OC(C)=O)C[C@H](OC(=O)CCC)[C@@]1(O)[C@H]2OC(=O)[C@@]1(C)O` [thapsigargin], for which the “block of LPA current responses by pretreatment” value at mANO1 [1] is reported as “completely blocked”. Also, the “block of IP3-induced current” value at mANO1 [1] (pretreatment of 1 μM thapsigargin, mANO1-expressing oocyte) is listed as “blocked”.

As for `CNCCC(Oc1ccc(C(F)(F)F)cc1)c1ccccc1` (stereo not drawn) [fluoxetine], the “inhibition of response” value against mANO1 [2] was “markedly inhibited”.

In the case of `COc1ccc2c(c1)CC[C@@H]1[C@@H]2CC[C@]2(C)[C@@H](NCCCCCCN3C(=O)C=CC3=O)CC[C@@H]12` [U-73122], at mANO1 [1], the “block of LPA current responses by pretreatment” value is given as “completely blocked”.

In the case of `OC(c1cc(C(F)(F)F)nc2c(C(F)(F)F)cccc12)C1CCCCN1` (stereo not drawn) [mefloquine], the “inhibition of response” value at mANO1 [2] is reported as “markedly inhibited”.

Take `O=C(O)c1cccnc1Nc1cccc(C(F)(F)F)c1` [niflumic acid]: on mANO1 [1] (Xenopus oocytes), the “block of LPA-induced ANO1 currents” value is recorded as “significantly blocked”. Further, the “inhibition of response” value at mANO1 [2] was “markedly inhibited”.

With `O=C(O)c1ccccc1Nc1ccccc1` [n-phenyl-anthranilic acid], the “inhibition of response” value on mANO1 [2] is “markedly inhibited”.

Consider `O=C(O)c1cc([N+](=O)[O-])ccc1NCCCc1ccccc1` [NPPB, 5-nitro-2-(3-phenyl-propylamino)-benzoate], for which the “block of LPA-induced ANO1 currents” value on mANO1 [1] (Xenopus oocytes) is recorded as “significantly blocked”. In addition, the “inhibition of response” value at mANO1 [2] is “markedly inhibited”.

For `O=P(O)(O)O[C@@H]1[C@H](O)[C@H](O)[C@@H](OP(=O)(O)O)[C@H](OP(=O)(O)O)[C@H]1O` [IP3, inositol 1,4,5,-triphosphate], the “inward currents evoked by IP3 micro-injection” value on mANO1 [1] (2 mM IP3 in 50 nl into oocytes expressing ANO1) was “evoked robust inward currents”.

As for `C[N+](C)(C)CCOC(N)=O` [carbachol], in the test with mANO1 [3], the “current responses to GPCR ligands” value was “robust current responses”.
